Biological target: human PSMA (Homo sapiens (Human), UniProt Q04609)
Experiment: Enzymatic assay for in vitro evaluation of PSMA inhibitors (fluorescent assay of PSMA activity, NAAG substrate, OPA detection of glutamate)
Format: biochemical
Details: for PSMA Blkg % (10 μM): compound at 10 μM

Sequence of human PSMA (Q04609 whole entry): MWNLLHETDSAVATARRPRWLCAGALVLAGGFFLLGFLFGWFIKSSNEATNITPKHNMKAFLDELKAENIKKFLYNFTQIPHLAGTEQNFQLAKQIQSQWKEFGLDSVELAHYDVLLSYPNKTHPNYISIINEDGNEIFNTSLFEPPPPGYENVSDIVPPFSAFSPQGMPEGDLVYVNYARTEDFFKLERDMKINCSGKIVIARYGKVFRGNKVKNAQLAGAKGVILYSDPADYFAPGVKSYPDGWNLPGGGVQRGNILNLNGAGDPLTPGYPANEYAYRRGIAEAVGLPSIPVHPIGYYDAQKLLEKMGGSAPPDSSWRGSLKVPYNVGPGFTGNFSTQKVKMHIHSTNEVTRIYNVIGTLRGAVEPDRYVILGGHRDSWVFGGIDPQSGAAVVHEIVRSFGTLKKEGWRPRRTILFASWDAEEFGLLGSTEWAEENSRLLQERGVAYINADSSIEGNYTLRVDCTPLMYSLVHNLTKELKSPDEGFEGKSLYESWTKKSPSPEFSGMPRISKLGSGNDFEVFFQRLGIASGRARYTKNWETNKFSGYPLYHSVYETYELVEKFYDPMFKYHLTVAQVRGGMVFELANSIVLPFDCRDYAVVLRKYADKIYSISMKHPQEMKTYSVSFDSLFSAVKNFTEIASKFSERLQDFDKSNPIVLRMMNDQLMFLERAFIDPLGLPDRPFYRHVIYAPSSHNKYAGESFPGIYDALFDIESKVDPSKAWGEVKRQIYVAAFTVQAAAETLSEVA

| Compound | PSMA Blkg % (10 μM) | Ki |
| --- | --- | --- |
| O=C(O)CC[C@@H](C(=O)O)N1C(=O)/C(=C(\O)CCCCn2cc(CCCF)nn2)C(=O)N(Cc2ccccc2)C1=O [P102, (S,Z)-2-(3-Benzyl-5-(5-(4-(3-fluoropropyl)-1H-1,2,3-triazol-1-yl)-1-hydroxypentylidene)-2,4,6-trioxotetrahydropyrimidin-1(2H)-yl)pentanedioic Acid] | 0% |  |
| CN(C(=O)N[C@@H](CCC(=O)O)C(=O)O)[C@@H](CCCCNC(=O)CCCc1ccc(-n2cc(CCCF)nn2)cc1)C(=O)O [P103] | 91% | 235 nM |
| CCC1(CC)C(=O)N([C@@H](CCCCN(Cc2ccc([N+](=O)[O-])cc2)Cc2ccc([N+](=O)[O-])cc2)C(=O)O)C(=O)N([C@@H](CCC(=O)O)C(=O)O)C1=O [P104, (S)-2-(3-((S)-5-(Bis(4-nitrobenzyl)amino)-1-carboxypentyl)-5,5-diethyl-2,4,6-trioxotetrahydropyrimidin-1(2H)-yl)pentanedioic Acid] | 7% |  |
| CCC1(CC)C(=O)N([C@@H](CCCCN(Cc2ccc([N+](=O)[O-])cc2)C(=O)CCCCn2cc(CCCF)nn2)C(=O)O)C(=O)N([C@@H](CCC(=O)O)C(=O)O)C1=O [P105, (S)-2-(3-((S)-1-Carboxy-5-(5-(4-(3-fluoropropyl)-1H-1,2,3-triazol-1-yl)-N-(4-nitrobenzyl)pentanamido)pentyl)-5,5-diethyl-2,4,6-trioxotetrahydropyrimidin-1(2H)-yl)pentanedioic Acid] | 5% |  |
| O=C(O)CC[C@@H](C(=O)O)N1C(=O)N([C@@H](CCCCNC(=O)OCc2ccccc2)C(=O)O)C(=O)C2(CCC2)C1=O [P106, (2S)-2-(8-((S)-5-(Benzyloxycarbonylamino)-1-carboxypentyl)-5,7,9-trioxo-6,8-diazaspiro[3.5]nonan-6-yl)pentanedioic Acid] | 67% |  |
| CCC1(CC)C(=O)N([C@@H](CCCCNS(=O)(=O)c2ccc([N+](=O)[O-])cc2)C(=O)O)C(=O)N([C@@H](CCC(=O)O)C(=O)O)C1=O [P107, (S)-2-(3-((S)-1-Carboxy-5-(4-nitrophenylsulfonamido)pentyl)-5,5-diethyl-2,4,6-trioxotetrahydropyrimidin-1(2H)-yl)pentanedioic Acid] | 19% |  |
| CCC1(CC)C(=O)N([C@@H](CCCCNC(=O)NCc2ccccc2)C(=O)O)C(=O)N([C@@H](CCC(=O)O)C(=O)O)C1=O [P108, (S)-2-(3-((S)-5-(3-benzylureido)-1-carboxypentyl)-5,5-diethyl-2,4,6-trioxotetrahydropyrimidin-1(2H)-yl)pentanedioic Acid] | 11% |  |
| O=C(O)CCC(C(=O)O)n1cc(COc2ccc3ccc(=O)oc3c2)nn1 (stereo not drawn) [P109, 2-(4-(((2-oxo-2H-chromen-7-yl)oxy)methyl)-1H-1,2,3-triazol-1-yl)pentanedioic Acid] | 24% |  |
| CCC1(CC)C(=O)N([C@@H](CCCCNCc2ccc([N+](=O)[O-])cc2)C(=O)O)C(=O)N([C@@H](CCC(=O)O)C(=O)O)C1=O [P110, (S)-2-(3-((S)-1-carboxy-5-(4-nitrobenzylamino)pentyl)-5,5-diethyl-2,4,6-trioxotetrahydropyrimidin-1(2H)-yl)pentanedioic Acid] | 8% |  |
| O=C(O)CC[C@H](NC(=O)CCN(O)C(=O)CCCc1ccc(-n2cc(CCCF)nn2)cc1)C(=O)O [P111, (S)-2-(3-(4-(4-(4-(3-Fluoropropyl)-1H-1,2,3-triazol-1-yl)phenyl)-N-hydroxybutanamido)propanamido)pentanedioic Acid] | 9% |  |
| CCC1(CC)C(=O)N([C@@H](CCCCNCc2ccc(OC)cc2)C(=O)O)C(=O)N([C@@H](CCC(=O)O)C(=O)O)C1=O [P112, (S)-2-(3-((S)-1-Carboxy-5-(4-methoxybenzylamino)pentyl)-5,5-diethyl-2,4,6-trioxotetrahydropyrimidin-1(2H)-yl)pentanedioic Acid] | 4% |  |
| CCC1(CC)C(=O)N([C@@H](CCCCNC(=O)c2ccc(F)nc2)C(=O)O)C(=O)N([C@@H](CCC(=O)O)C(=O)O)C1=O [P113, (S)-2-(3-((S)-1-Carboxy-5-(6-fluoronicotinamido)pentyl)-5,5-diethyl-2,4,6-trioxotetrahydropyrimidin-1(2H)-yl)pentanedioic Acid] | 11% |  |
| CCC1(CC)C(=O)N([C@@H](CCCCNC/C=C/c2ccc(-n3cc(CCCF)nn3)cc2)C(=O)O)C(=O)N([C@@H](CCC(=O)O)C(=O)O)C1=O [P114, (S)-2-(3-((S)-1-Carboxy-5-((E)-3-(4-(4-(3-fluoropropyl)-1H-1,2,3-triazol-1-yl)phenyl)allylamino)pentyl)-5,5-diethyl-2,4,6-trioxotetrahydropyrimidin-1(2H)-yl)pentanedioic Acid] | 8% |  |
| O=C(O)CC[C@H](NC(=O)C[C@H](NC(=O)CCCc1ccc(-n2cc(CCCF)nn2)cc1)C(=O)O)C(=O)O [P115] | 36% |  |
| O=C(O)CC[C@H](NC(=O)C[C@H](NC(=O)CCCNC(=O)OCc1ccccc1)C(=O)O)C(=O)O [P116, (10S,14S)-3,8,12-Trioxo-1-phenyl-2-oxa-4,9,13-triazahexadecane-10,14,16-tricarboxylic Acid] | 31% |  |
| O=C(O)CC[C@@H](C(=O)O)N1C(=O)NC(=O)/C(=C(/O)CCC(NC(=O)OCC2c3ccccc3-c3ccccc32)C(=O)O)C1=O (stereo partly drawn) [P117] | 18% |  |
| CCC1(CC)C(=O)N([C@@H](CCCCNC(=O)OCc2ccc([N+](=O)[O-])cc2)C(=O)O)C(=O)N([C@@H](CCC(=O)O)C(=O)O)C1=O [P118, (S)-2-(3-((S)-1-Carboxy-5-((4-nitrobenzyloxy)carbonylamino)pentyl)-5,5-diethyl-2,4,6-trioxotetrahydropyrimidin-1(2H)-yl)pentanedioic Acid] | 13% |  |
| O=C(O)CC[C@H](NC(=O)C[C@H](NC(=O)CCCCNC(=O)c1ccccc1)C(=O)O)C(=O)O [P119, (S)-2-((S)-3-(5-Benzamidopentanamido)-3-carboxypropanamido)pentanedioic Acid] | 26% |  |
| O=C(O)CC[C@@H](C(=O)O)N1C(=O)CC(=O)N([C@@H](CCCCNC(=O)OCc2ccc([N+](=O)[O-])cc2)C(=O)O)C1=O [P120, (S)-2-(3-((S)-1-Carboxy-5-((4-nitrobenzyloxy)carbonylamino)pentyl)-2,4,6-trioxotetrahydropyrimidin-1(2H)-yl)pentanedioic Acid] | 15% |  |
| NC(=O)CCC(C(=O)O)n1cc(COc2ccc3ccc(=O)oc3c2)nn1 (stereo not drawn) [P121, 5-Amino-5-oxo-2-(4-(((2-oxo-2H-chromen-7-yl)oxy)methyl)-1H-1,2,3-triazol-1-yl)pentanoic Acid] | 7% |  |
| COc1ccc(CCCC(=O)N[C@@H](CC(=O)N[C@@H](CCC(=O)O)C(=O)O)C(=O)O)cc1 [P122, (S)-2-((S)-3-Carboxy-3-(4-(4-methoxyphenyl)butanamido)propanamido)-pentanedioic Acid] | 18% |  |
| O=C(O)CC[C@H](NC(=O)C[C@H](NC(=O)CCCc1ccc([N+](=O)[O-])cc1)C(=O)O)C(=O)O [P123, (S)-2-((S)-3-Carboxy-3-(4-(4-nitrophenyl)butanamido)propanamido)pentanedioic Acid] | 17% |  |
| O=C(O)CC[C@@H](C(=O)O)N1C(=O)CC(=O)NC1=O [P126] | 12% |  |

Reference: patent US10894807B2 (Siemens Medical Solutions USA, Inc., priority 2011, dated 2021)
